Holding throughout (assay): NCI-60 cell line screen, 48 h
The test system of assay [1] is KM-20L2.
Assay [2] has as its system DMS-114.
The subject of assay [3] is DMS-273.
Assay [4] relates to PC-3.
In assay [5] the test system is Hs-578T.
Assay [6] relates to HOP-18.
For assay [7], the system named is XF498.
Assay [8] deals with DLD-1.

Molecules are shown by their SMILES.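 Grown in 96-well plates, cells were treated for 48 hours with each compound at five concentrations. Insufficient inhibition: endpoint recorded as highest concentration tested. GI50: concentration for 50% inhibition of growth.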 Calls of active or inactive are those of the source. Cut-off read from the data, not from the text of the source: active = GI50 up to about 1.1 µM and inactive = higher.

For the molecule `COc1ccc(/C=N/n2cnc3c(c2=O)S/C(=C2/SC(=S)N(c4ccc(C)cc4)C2=O)N3c2ccccc2)cc1`, the values for the GI50 in assay [1], in assay [2] and in assay [3] were > 100 µM (inactive), 74.5 µM (inactive) and 38.9 µM (inactive), respectively.
In the case of `O=C1CCSSCCC(=O)NCCN1`, the GI50 in assay [4] and in assay [5] was > 100 µM (inactive) each time.
Regarding `COc1cc([N+](=O)[O-])c(S(=O)(=O)O)cc1-n1nc(-c2ccccc2)n[n+]1-c1cc(S(=O)(=O)[O-])c([N+](=O)[O-])cc1OC`, the GI50 in assay [4] and in assay [5] was > 100 µM (inactive) each time.
As to `COC(=O)C1Cc2c(OC)ccc(OC)c2C(O)C1C(=O)OC` (stereo not drawn), the GI50 in assay [4] and in assay [5] was > 100 µM (inactive) each time.
For the molecule `CN(C)CCNc1c2ccccc2c2c3c(cccc13)C(=O)N(CCN(C)C)C2=O`, the GI50 in assay [1] was 0.103 µM (active); in assay [6], 0.188 µM (active); in assay [7], 0.267 µM (active); in assay [8], 0.0578 µM (active); in assay [3], 0.122 µM (active).
Consider `O=C(NCCCCCCNCc1cccc2ccccc12)Nc1cccc2ccccc12`, for which the GI50 in assay [4] and in assay [5] was > 100 µM (inactive) each time.
For the molecule `C=C1C(=O)C23C(O)CC4C5(C)CCCC4(C(O)OC5)C2C(OC(C)=O)CC1C3O` (stereo not drawn), the GI50 in assay [1] was 8.95 µM (inactive); in assay [6] it was 16.7 µM (inactive); in assay [8], 5.06 µM (inactive); in assay [2] it was 4.51 µM (inactive); in assay [3] it was 17.9 µM (inactive).
Consider `COC(=O)C1=C(O)C(C(=O)OC)C2CC(=O)CC1C2(C)C` (stereo not drawn), for which the GI50 in assay [4] is > 100 µM (inactive); in assay [5], 11.2 µM (inactive).
As to `COc1cc2c(c(OC)c1OC)-c1ccc(SC)cc1C(=O)CC2`, the GI50 in assay [4] and in assay [5] was < 0.01 µM (active) throughout.
`CC1OC2OC3C(OCC(O)C3O)OC(=O)[C@]34CCC(C)(C)CC3C3=CCC5[C@@]6(C)C[C@H](O)[C@H](OC7OC(CO)C(O)C(O)C7OC7OCC(OC(=O)CC(C)(O)CC(=O)OC1C(O)C2O)C(O)C7O)[C@@](C)(CO)C6CC[C@@]5(C)[C@]3(C)CC4` (stereo partly drawn): the results for the GI50 in assay [4] and in assay [5] were 2.17 µM (inactive) and 8.34 µM (inactive), respectively.
For `Cc1cc(S(=O)(=O)[N-]/C(=N/S(=O)(=O)c2ccc(Cl)cc2)[n+]2ccc(N(C)C)cc2)c(S)cc1Cl`, the GI50 in assay [4] is 54 µM (inactive); in assay [5] it was 54.8 µM (inactive).
For the molecule `COC(=O)c1s/c(=N\C(=S)N(C)C)n(-c2ccc(Cl)cc2)c1C(=O)OC`, the GI50 in assay [1] and in assay [3] was > 100 µM (inactive) throughout.
Consider `c1cc2nnnn2nc1N1CCCC1`, for which, in assay [4], the GI50 was > 100 µM (inactive).
With `COc1cc(C[C@@]2(C)[C@@H]3CCC[C@H](CO)[C@@]3(C)CC[C@@H]2C)c(Cl)c(OC)c1`, the GI50 was 14.2 µM (inactive) in assay [4] and 21.5 µM (inactive) in assay [5].
In the case of `CCOC(=O)c1nc2ccccc2nc1Oc1ccc(OC)cc1`, the GI50 in assay [4] and in assay [5] was > 100 µM (inactive) each time.
Regarding `CC(C)(C)C1=CC(=N/N=c2\scc(-c3ccccc3)n2Cc2ccccc2)C=C(C(C)(C)C)C1=O`, the GI50 in assay [1], in assay [7], in assay [2] and in assay [3] was > 100 µM (inactive) in each case.
On to `O=C1c2ccccc2C(=O)N1c1ccc(Cc2ccc(N3C(=O)c4ccccc4C3=O)cc2)cc1`, for which the GI50 in assay [4] and in assay [5] was > 100 µM (inactive) throughout.
Turning to `Oc1ccc(-c2nc3ccc(Br)cc3s2)cc1`, the GI50 in assay [4] is 19.2 µM (inactive).
Consider `CC(C)NC(=O)OCc1c(COC(=O)NC(C)C)n(C)c2c1ccc1sccc12`, for which the GI50 in assay [4] is 11.5 µM (inactive); in assay [5], 13.6 µM (inactive).
On the same counts, the results for `CC(=O)c1c(-c2cccc3ccccc23)c(C#N)c(=S)n(C2OC(CO)C(O)C(O)C2O)c1C` (stereo not drawn) are > 100 µM (inactive) and > 100 µM (inactive).
On to `CN(Cc1ccccc1)C(=NC#N)N(C)Cc1ccccc1`, for which the GI50 in assay [1], in assay [8] and in assay [3] was > 100 µM (inactive) throughout.
Take `CNC(=O)OC(COC)CN1CCN(c2ccccc2C)CC1` (stereo not drawn): the GI50 in assay [4] and in assay [5] was > 10 µM (inactive) each time.
For the molecule `CCN(CC)C(=S)SS(=O)(=O)c1cccc(N)c1`, the GI50 in assay [5] is > 100 µM (inactive).
Take `N[C@@H]1C[C@H](N)c2c(Cl)sc(Cl)c21`: the GI50 in assay [4] is > 100 µM (inactive).
Consider `CCOC(=O)/C(=C\c1ccnc2ccccc12)P(=O)(OCC)OCC`, for which the results for the GI50 in assay [4] and in assay [5] were 5.53 µM (inactive) and 3.21 µM (inactive), respectively.
Consider `CSC(=S)OC1CC(n2cnc3c(NC(=O)c4ccccc4)ncnc32)OC1CO[Si](C)(C)C(C)(C)C` (stereo not drawn), for which the GI50 in assay [4] was 5.64 µM (inactive); in assay [5], 38.8 µM (inactive).
Regarding `Cc1ccc(NC=O)c(-c2c(N)[nH]c(=S)[nH]c2=O)c1`, the GI50 in assay [5] is > 100 µM (inactive).
As for `CCC1(C(=O)OC(C)(C)C)OC12C(C)CCCC2C` (stereo not drawn), the GI50 is 57.9 µM (inactive) in assay [4] and 90.2 µM (inactive) in assay [5].
As for `O=c1[nH]c2ccsc2c(=O)n1COCc1ccccc1`, the GI50 in assay [4] and in assay [5] was > 100 µM (inactive) each time.
For the molecule `COC(=O)CC1CN(C(=O)OCc2ccccc2)C(C)(C)O1` (stereo not drawn), the GI50 in assay [4] is 62.7 µM (inactive).
Regarding `O=C(N/N=C\c1cccc(O)c1)c1ccncc1`, the GI50 in assay [4] and in assay [5] was > 100 µM (inactive) throughout.
On to `CCOc1ccc(NC(=O)CC2SC(N)=NC2=O)cc1` (stereo not drawn), for which the GI50 in assay [1], in assay [7], in assay [8] and in assay [2] was > 100 µM (inactive) throughout.
Regarding `C/C(=C/CO[Si](C)(C)C(C)(C)C)C(=O)N(C)c1ccccc1I`, the GI50 in assay [4] was 14.1 µM (inactive); in assay [5] it was 18.2 µM (inactive).
On the same counts, the results for `CCOC(=O)c1cc2c(ccc3cc(C(=O)OCC)[nH]c32)[nH]1` are > 100 µM (inactive) and 17.2 µM (inactive).
On to `NC(=O)N/N=C1/CCC(O)CC1CC(=O)O` (stereo not drawn), for which the GI50 in assay [4] and in assay [5] was > 100 µM (inactive) each time.
`CN(C)CCCNC(=O)c1cn2c(ccc3sc4ccccc4c(=O)c32)n1`: the GI50 is 4.8 µM (inactive) in assay [4] and 15.7 µM (inactive) in assay [5].
For the molecule `CC(=O)NCCC1CN(C(=O)/C=C\C#C[Si](C)(C)C)c2ccccc21` (stereo not drawn), the GI50 in assay [4] was 27 µM (inactive); in assay [5] it was 33 µM (inactive).
In the case of `Cn1c(=O)c2c(nc3n2CCCC(=O)N3CCCCl)n(C)c1=O`, the GI50 in assay [4] and in assay [5] was > 100 µM (inactive) in each case.
With `N[C@@H]1c2c(Br)sc(Br)c2[C@H](O)[C@@H]1O`, the GI50 in assay [4] and in assay [5] was > 100 µM (inactive) throughout.
In the case of `CN(C)CCNC(=O)c1cccc2c(NCC(=O)O)c3ccccc3nc12`, the figures for the GI50 in assay [4] and in assay [5] were 10.5 µM (inactive) and 18.5 µM (inactive), respectively.
For the molecule `CCc1cc2c(c3c1CCCC3)CC1(Cc3ccc(C(=O)OC)cc3C1)C2` (stereo not drawn), the GI50 in assay [4] was 65 µM (inactive); in assay [5], 60.3 µM (inactive).
Turning to `O=S(=O)(O)c1cc(/N=[N+](\[O-])c2cc(S(=O)(=O)O)c3ccccc3c2)cc2ccccc12`, the GI50 is > 100 µM (inactive) in assay [4] and 33.5 µM (inactive) in assay [5].
In the case of `Cc1ccc2c(c1)[n+]([O-])c(N)n[n+]2[O-]`, the GI50 in assay [4] and in assay [5] was > 100 µM (inactive) in each case.
On to `COc1c(O)cc2c(c1O)C(=O)/C(=C/c1ccc(O)cc1)CO2`, for which the GI50 is 43 µM (inactive) in assay [4] and 30.2 µM (inactive) in assay [5].
Regarding `O=[N+]([O-])/C=C/c1c(Cl)cccc1Cl`, the GI50 in assay [4] was 1.77 µM (inactive); in assay [5], 9.44 µM (inactive).
In the case of `C#C/C=C\CCCC/C=C\C#CC#CCCCC#CC#C[C@H](COS(=O)(=O)O)OS(=O)(=O)O`, the GI50 in assay [4] and in assay [5] was > 100 µM (inactive) throughout.
For `CC(=O)OC12c3ccccc3C1CCCC21OCCCO1` (stereo not drawn), the GI50 in assay [1], in assay [6], in assay [8], in assay [2] and in assay [3] was > 100 µM (inactive) each time.
Regarding `COc1ccc(C2SCC(=O)N2NC(=O)c2ccc(NC(C)=O)cc2)c(OC)c1` (stereo not drawn), the GI50 in assay [5] is > 100 µM (inactive).
Regarding `CCOC(=O)Cc1csc2[n+]1C(=O)/C(=C/c1cccc(OC)c1O)S2`, the GI50 in assay [4] is 40.8 µM (inactive).
As to `CN(Cc1cccc2ccccc12)Cc1cccc2ccccc12`, the values for the GI50 in assay [4] and in assay [5] were 24 µM (inactive) and 44.3 µM (inactive), respectively.
With `Cc1ccc(C2=Nn3c(nc4sc(-c5ccccc5)cc4c3=O)SC2)cc1`, the GI50 in assay [4] and in assay [5] was > 100 µM (inactive) throughout.
Consider `CCOC(=O)C1=C(N)N(c2ccccc2)/C(=C(/C#N)c2nc3ccccc3[nH]2)S1`, for which the GI50 in assay [1], in assay [7], in assay [8] and in assay [3] was > 100 µM (inactive) in each case.
Consider `COc1cccc(/C=N/NC(=O)CN(C)C)c1O`, for which the GI50 in assay [4] and in assay [5] was > 100 µM (inactive) each time.
`COc1ccc(CC2COc3cc(OC)cc(OC)c3C2=O)cc1` (stereo not drawn): the GI50 in assay [4] was 22.5 µM (inactive); in assay [5], 17.5 µM (inactive).
Consider `ClCCCN(CCCCl)c1ccc(/C=N/c2cccc(Cl)c2)cc1`, for which the GI50 in assay [4] was 10.7 µM (inactive); in assay [5], 16.1 µM (inactive).
For the molecule `CC(C)C[P+](c1ccccc1)(c1ccccc1)c1ccccc1`, the GI50 in assay [5] was 11.2 µM (inactive).
In the case of `C[N+](C)(C)C.FC(F)(F)C1(C(F)(F)F)O[SiH-]2(OC(C(F)(F)F)(C(F)(F)F)c3ccccc32)c2ccccc21`, the GI50 in assay [1] is 5.24 µM (inactive); in assay [6], 36.9 µM (inactive); in assay [2] it was 14.1 µM (inactive); in assay [3] it was 20.1 µM (inactive).
For the molecule `CN(C)c1nc(N(C)C)nc(N(C)CN(C)c2ccc(Cl)cc2)n1`, the GI50 in assay [7], in assay [8], in assay [2] and in assay [3] was > 100 µM (inactive) each time.
